Reference: ChEMBL document CHEMBL3988442, “University of Dundee, Small-Polar-MMV Screening Library” (2021)

Columns and labels:
[1] = microbe, parasite or virus in culture; details: Mycobacterium tuberculosis, 96 h, read-out: pIC50 (converted)
[2] = microbe, parasite or virus in culture; details: Mycobacterium tuberculosis, 72 h, read-out: pIC50 (converted)

Structure (SMILES)	IC50 [1]	IC50 [2]
Cc1cc(C(C)NC(=O)CN2CSCC2=O)c(C)s1 (stereo not given)	> 501 µM	274 µM
CC1CCCN(S(=O)(=O)N(C)Cc2ccco2)C1 (stereo not given)	> 501 µM	> 501 µM
CNc1cc(CN(C)Cc2ccccc2)ccn1	430 µM	227 µM
O=C(COC(=O)c1ccccn1)Nc1ccccc1	> 501 µM	234 µM
Cc1cnc(NC(C)Cc2cccnc2)nc1N(C)C (stereo not given)	> 50.1 µM	> 50.1 µM
CCCSc1ccc(NC(=O)NCCN)cc1	233 µM	187 µM
CN1CCN(C(=O)c2cc(-c3cccs3)on2)CC1	107 µM	171 µM
CS(=O)(=O)NCCc1csc(N2CCCC2)n1	> 501 µM	132 µM
N[C@@H]1C[C@H]1c1ccc2c(c1)OCCO2	196 µM	> 501 µM
Cc1cccc(OCC(O)CN)c1 (stereo not given)	345 µM	179 µM
CC(C)(C)OCCOc1ccc(OCCO)cc1	161 µM	101 µM
OCCNC1CCCC1	> 501 µM	> 501 µM
CC(=O)c1ccc(C(=O)Nc2ccnc(N(C)C)n2)cc1	> 50.1 µM	> 50.1 µM
O=C(Cc1cccnc1)NCCNc1cccc(Br)c1	> 501 µM	143 µM
FC1(F)CCNCC12CCN(c1ncccn1)C2 (stereo not given)	> 50.1 µM	> 50.1 µM
CCOC(=O)CCC(=O)c1ccc2c(c1)OCCO2	199 µM	209 µM
OCC1CCCN1c1cc(N2CCC(OC3CCCC3)CC2)ncn1 (stereo not given)	13.8 µM	15.5 µM
CCOc1cccc(CN(C)S(=O)(=O)c2cccs2)n1	191 µM	144 µM
CN(Cc1ccco1)CC(O)COCc1cccs1 (stereo not given)	188 µM	235 µM
CN(C)C(CN)C1CCCCC1 (stereo not given)	252 µM	279 µM
CN1CCN(c2ccnc(SCC(N)=O)n2)CC1	> 501 µM	289 µM
COc1ccc(COCC(=O)N2CCCC(n3cncn3)C2)cc1 (stereo not given)	> 50.1 µM	> 50.1 µM
O=S(=O)(CCN1CCCC(O)C1)c1ccc(Br)cc1 (stereo not given)	174 µM	359 µM
CN(C)CCC(=O)c1ccc(F)cc1	177 µM	92.2 µM
CNCc1nc(C(F)(F)F)no1	> 501 µM	> 501 µM
Cc1[nH]c2ccc(C(N)=O)cc2c1C	41.9 µM	20.8 µM
CSCC(CCO)Nc1ncccc1C(F)(F)F (stereo not given)	> 501 µM	253 µM

Structure (SMILES)	IC50 [1]	IC50 [2]
COC(=O)C(NC(=O)c1ccc(NC2CC2)nc1)c1ccccc1 (stereo not given)	21.9 µM	> 50.1 µM
COCCCN(C)c1nc(-c2ccncc2)nc(C)c1C	6.84 µM	11.8 µM
CN(C1(C#N)CCC1)S(=O)(=O)c1ccccc1	> 501 µM	> 501 µM
CC(C)c1nccn1C(C)C(=O)N1CCN(c2cnccn2)CC1 (stereo not given)	> 50.1 µM	> 50.1 µM
CCC(N)C(=O)Nc1ccc2c(c1)C(=O)CCC2 (stereo not given)	137 µM	163 µM
NCC(=O)N1CCCC(CCc2ccccc2F)C1 (stereo not given)	256 µM	271 µM
Cc1ccc(OCC(=O)NC2(C#N)CCSCC2)cc1C	2.04 µM	20.7 µM
CC(C)N(C)S(=O)(=O)NC1CCOc2ccccc21 (stereo not given)	> 501 µM	340 µM
N#Cc1ccc(OCCCN2CCNC(=O)C2)cc1	290 µM	233 µM
COCCN1CCN(CCS(=O)(=O)C(F)(F)F)CC1	293 µM	131 µM
CCOC(=O)c1cccnc1NCc1cnn(C)c1C	> 501 µM	180 µM
CC(C)C(C)N(C)Cc1nnc(-c2ccco2)o1 (stereo not given)	> 50.1 µM	1.38 µM
CNCC(=O)NCCc1c(OC)ccc2ccccc12	> 501 µM	411 µM
CN(Cc1ccncc1)S(=O)(=O)c1cccs1	> 501 µM	116 µM
COCc1nn(Cc2ccccc2Cl)c(=O)o1	393 µM	35.9 µM
O=C(Nc1ccccn1)C1Cc2ccccc2O1 (stereo not given)	277 µM	268 µM
CCCNc1nnc(SCC(C)(C)O)s1	159 µM	297 µM
Cc1ccc(N2N=C(C(N)=O)S(=O)(=O)c3cccnc32)cc1	36 µM	14.5 µM
Cc1ccc(C(=O)N2CCCC(c3cc(C(F)(F)F)[nH]n3)C2)o1 (stereo not given)	26.2 µM	15.4 µM
CCC1CN(S(C)(=O)=O)c2ccccc2O1 (stereo not given)	> 501 µM	164 µM
CC(CNCC(F)(F)CO)c1ccccc1 (stereo not given)	> 501 µM	> 501 µM
N#Cc1cc(Cl)ccc1N1CCN(C(=O)C2CCC2)CC1	> 50.1 µM	> 50.1 µM
Cc1ccc(N2CCN(c3ccccc3C)CC2C)nn1 (stereo not given)	> 50.1 µM	> 50.1 µM
CCc1nc(CNc2ccc(C#N)nc2)cs1	96.8 µM	113 µM
CN(C)c1ccc(C(=O)N2CCCC2c2cnn(C)c2)nn1 (stereo not given)	> 50.1 µM	> 50.1 µM
Cc1nccc(C(=O)N2CCCN(Cc3cnn(C(C)C)c3)CC2)n1	> 50.1 µM	> 50.1 µM
O=C1N(Cc2cccnc2)CCC12CCCN(c1ncccn1)C2 (stereo not given)	> 50.1 µM	> 50.1 µM

Structure (SMILES)	IC50 [1]	IC50 [2]
O=C(NCc1ccco1)N1CCN(Cc2ccc3c(c2)CCO3)CC1	5.53 µM	11.4 µM
O=C(NCc1ccc(CO)cc1)C1CCOc2ccccc2C1 (stereo not given)	12.2 µM	> 50.1 µM
CN(C1(C#N)CCC1)S(=O)(=O)c1cccs1	> 501 µM	323 µM
CCN1CCN(C(C)CNC(=O)Cn2cnnn2)CC1 (stereo not given)	> 501 µM	> 501 µM
O=c1oc(-c2ccc(F)cc2)nn1CC1CCCCO1 (stereo not given)	> 50.1 µM	0.609 µM
O=C(c1cc(-c2ccn(CC3CC3)n2)n2ccccc12)N1CCCO1	1.05 µM	3.54 µM
CN(C)C(=O)c1csc(-c2ccccc2)n1	> 501 µM	> 501 µM
Cc1cnn(CC2CN(Cc3nc4ccccc4s3)CCO2)c1 (stereo not given)	14.7 µM	34.7 µM
Cc1cc(C(=O)NCC2Cn3nnc(C)c3CO2)no1 (stereo not given)	> 50.1 µM	> 50.1 µM
NC(=O)c1cc(C2CCCN(C(=O)CCc3ccncc3)C2)n[nH]1 (stereo not given)	> 50.1 µM	> 50.1 µM
CCC1Oc2c(Cl)cccc2NC1=O (stereo not given)	> 501 µM	> 501 µM
CCOCC(C)Nc1ccc(C)c(S(C)(=O)=O)c1 (stereo not given)	221 µM	188 µM
CCCC(C#N)NC(=O)c1ccn(-c2ccccc2)n1 (stereo not given)	> 501 µM	294 µM
O=C(Cn1cc(Br)cn1)Nc1ccc2c(c1)OCCO2	247 µM	220 µM
O=C(NCc1ccc2c(c1)OCO2)N1CCCCC1	43.3 µM	139 µM
COc1cc(C(=O)NCCc2ccc(Cl)cc2)on1	> 50.1 µM	4.56 µM
COCC1CCN(C(=O)c2cc(C3CC3)on2)CC1	26.5 µM	> 501 µM
O=C(CCN1CCCC1)N1CCc2ccccc21	> 501 µM	391 µM
CCCn1nnnc1NCc1ccc(F)cc1	19.8 µM	37.8 µM
CCN(CC)CCS(=O)(=O)c1ccccc1	> 501 µM	300 µM
COc1ccc(CNc2nc(C3CC3)nc3c(C)nn(C)c23)cc1	9.46 µM	27.3 µM
CNC(=O)NC(=O)CCN1CCc2ccccc2C1	201 µM	196 µM
Cc1cc(CN2CCC(Oc3cccnc3)CC2)on1	> 501 µM	> 501 µM
O=C(CCn1cc(Br)cn1)NCc1cccs1	109 µM	102 µM
Cc1cc(C(=O)Nc2ccc3c(c2)CCCN3)on1	> 501 µM	150 µM
CCN1CCN(C(=O)c2ccc(C)c(C)c2)CC1	> 501 µM	> 501 µM
CCOc1ccc(CSc2nnc[nH]2)cc1	198 µM	218 µM

Structure (SMILES)	IC50 [1]	IC50 [2]
CC(C)CN(Cc1nnc(-c2ccco2)o1)CC(C)C	> 50.1 µM	4.4 µM
NS(=O)(=O)CC1CCN(c2ncc(Br)cn2)CC1	424 µM	286 µM
CCO[C@H]1CN(c2nc(-c3ccccc3)no2)C[C@@H]1O	> 501 µM	262 µM
CCNc1ncc(C(=O)N2CCCCC2)s1	> 501 µM	377 µM
Cc1cccc(C2(O)CCN(Cc3ccccc3N3CCCC3)CC2)c1	20.7 µM	12.1 µM
Cc1ccc(-c2cc(CS(=O)(=O)NC3CCCNC3=O)on2)cc1 (stereo not given)	> 50.1 µM	> 50.1 µM
Cc1cc(N2CCC2c2ccccc2)n2ncnc2n1 (stereo not given)	245 µM	162 µM
CCc1ccccc1NC(=O)NCc1nnc(SC)n1C	> 50.1 µM	> 50.1 µM
Cc1occc1C(=O)NCC(CO)Cc1cccs1 (stereo not given)	> 501 µM	> 501 µM
Cc1ccc(C(CN)N2CCCC2)o1 (stereo not given)	> 501 µM	101 µM
CC(C)COc1cncc(N(C)C2CCN(c3ncccn3)CC2)n1	40.6 µM	30 µM
CN(C)C(=O)CCCn1nnc(-c2ccsc2)n1	155 µM	89.8 µM
N#Cc1ccc(NCCC2CCN(CC(F)(F)F)CC2)nc1	14 µM	15.8 µM
N#Cc1nc(-c2ccccc2)oc1NCCCO	> 501 µM	243 µM
CCCC(=O)N(CCCN1CCOCC1)c1nc2c(C)c(C)ccc2s1	> 50.1 µM	> 50.1 µM
CCn1c(C(=O)N2CCOCC2C)cc2ccccc21 (stereo not given)	303 µM	191 µM
CCCC(=O)Nc1cc(C(=O)OC)cc(C(=O)OC)c1	> 501 µM	249 µM
COCCN1CCC(CNCc2c[nH]nc2C(C)(C)C)CC1	> 50.1 µM	39.9 µM
NCc1ccc(OC2CCCCC2)nc1	> 501 µM	> 501 µM
O=S(=O)(CCNc1cncc(Cl)n1)N1CCSCC1	215 µM	252 µM
COCC(=O)N1CCCN(Cc2cc(C(C)C)no2)CC1	> 50.1 µM	> 50.1 µM
NC(=O)CSc1nc(-c2ccc(Br)cc2)c[nH]1	260 µM	160 µM
COC(=O)c1ccc(CCNC(=O)C2CCCO2)cc1 (stereo not given)	383 µM	281 µM
CCc1ncc(C(=O)N2CCN(c3nccs3)CC2)s1	> 501 µM	79.4 µM
